# In patent US11439641B2, “Pyrimidine JAK inhibitors for the treatment of skin diseases” (THERAVANCE BIOPHARMA R&D IP, LLC, priority 2019, dated 2022):
# Key:
# JAK3 = JAK3 (Homo sapiens (Human), UniProt P52333); assay: Biochemical JAK and Tyk2 Kinase Assays (LanthaScreen), JAK3; settings: 1.6 μM ATP (Km), pIC50 converted to pKi by Cheng-Prusoff; for Ki: read-out: JAK 3 (pKi) (converted)
# Aqueous Solubility Assay = settings: PBS buffer pH 7.4; maximum upper limit 1,000 μM
# JAK1 = JAK1 (Homo sapiens (Human), UniProt P23458); assay: Biochemical JAK and Tyk2 Kinase Assays (LanthaScreen), JAK1; settings: 25 μM ATP (Km), pIC50 converted to pKi by Cheng-Prusoff
# Caco-2 cell monolayer = assay: Caco-2 Permeation Assay; assay type: in vitro ADME; settings: Papp, 5 μM compound; for Cacoverap Kp 10^−6 cm/sec: A→B in the presence of 25 μM verapamil (P-gp inhibitor); for Caco Kp 10^−6 cm/sec: apical to basal (A→B)
# Description: Assay 3: Caco-2 Permeation Assay
# The Caco 2 permeability assay was used as a surrogate for assessment of skin permeability. This assay measures the in vitro permeability across a monolayer of Caco-2 cells, which morphologically and functionally resemble the enterocytes of the small intestine.
# CacoReady 24-well transwell plates were obtained from ADMEcell (Alameda, Calif.). The compounds were evaluated at a concentration of 5 μM from 10 mM DMSO stock solutions in duplicate (n=2). Transport in the apical to basal (A→B) direction was determined in Caco 2 cell monolayers. From these values the apparent permeability (Papp) was calculated. To inform on the potential of the compound to be a P-gp substrate, the transport of the compound across the Caco-2 cell monolayer was also determined in the presence of 25 μM of the known P-gp inhibitor verapamil (Yusa and Tsuruo et al., Cancer Research, vol. 49, no. 18, 1989, pp. 5002-06).
# Caco-2 culture media consisted of standard filtered DMEM, FCS 10%, L-Glutamine 1%, and PenStrep 1%. The experiment was conducted at 37° C. and in a CO2 (5%) incubator. The basal assay plate was prepared by adding 750 pt of transport buffer to A→B wells. A CacoReady™ plate was prepared by removing the Caco-2 media from the apical wells and replacing with fresh transport media (200 pt repeated for a total of 3 washes). Blank media (200 μL) was then replaced with diluted compound. To begin the incubation, the basal plate was removed from the incubator and the apical section was added on top of it. Samples were collected from the apical and basal compartments for time zero (t0). Samples were collected again after 120 minutes (t120) from the apical and basal compartments. All samples were diluted and prepared for bioanalysis by LC-MS/MS. The permeability coefficients (Papp, mean A to B) and (Papp, mean A to B+Verapamil) in cm/sec were calculated as dQ (flux)/(dt×Area×concentration).
# In this assay, a compound with a Papp value of more than about 12×10−6 cm/sec is considered to have high permeability.
# [1] = Solubility Assay in Organic Excipients; settings: maximum upper limit 20,000 μM; for Solubility in MCT (mg/mL): medium chain triglycerides (MCT)
# [2] = tested on: IL-2 stimulated pSTAT5 in Tall-1 T cells; assay: Inhibition of IL-2 Stimulated pSTAT5 in Tall-1 T Cells; assay type: cell-based; settings: Tall-1 human T cell line, IL-2 300 ng/mL, AlphaLisa; for IC50: read-out: Tall-1 IL2 pSTAT5 (pIC50) (converted)
# Procedure, shortened: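 Cells preincubated with compound 1 hour at 37° C, then stimulated with IL-2 (final 300 ng/mL) for 30 minutes. After lysis, pSTAT5 (Tyr694/699) read by AlphaLISA luminescence. IC50 from inhibition curves, reported as pIC50 (mean±SD).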
# Tyk2 = Tyk2 (Homo sapiens (Human), UniProt P29597); assay: Biochemical JAK and Tyk2 Kinase Assays (LanthaScreen), Tyk2; settings: 10 μM ATP (Km), pIC50 converted to pKi by Cheng-Prusoff; for Ki: read-out: Tyk 2 (pKi) (converted)
# Description: (§1) Assay 1: Biochemical JAK and Tyk2 Kinase Assays
# (§2) A panel of four LanthaScreen JAK biochemical assays (JAK1, 2, 3 and Tyk2) were carried in a common kinase reaction buffer (50 mM HEPES, pH 7.5, 0.01% Brij-35, 10 mM MgCl2, and 1 mM EGTA). Recombinant GST-tagged JAK enzymes and a GFP-tagged STAT1 peptide substrate were obtained from Life Technologies.
# (§3) Serially or discretely diluted compounds were pre-incubated with each of the four JAK enzymes and the substrate in white 384-well microplates (Corning) at ambient temperature for 1 h. ATP was subsequently added to initiate the kinase reactions in 10 μL total volume, with 1% DMSO. The final enzyme concentrations for JAK1, 2, 3 and Tyk2 are 4.2 nM, 0.1 nM, 1 nM, and 0.25 nM respectively; the corresponding Km ATP concentrations used are 25 μM, 3 μM, 1.6 μM, and 10 μM; while the substrate concentration is 200 nM for all four assays. Kinase reactions were allowed to proceed for 1 hour at ambient temperature before a 10 μL preparation of EDTA (10 mM final concentration) and Tb-anti-pSTAT1 (pTyr701) antibody (Life Technologies, 2 nM final concentration) in TR-FRET dilution buffer (Life Technologies) was added. The plates were allowed to incubate at ambient temperature for 1 h before being read on the EnVision reader (Perkin Elmer). Emission ratio signals (520 nm/495 nm) were recorded and utilized to calculate the percent inhibition values based on DMSO and background controls.
# (§4) For dose-response analysis, percent inhibition data were plotted vs. compound concentrations, and IC50 values were determined from a 4-parameter robust fit model with the Prism software (GraphPad Software). Results were expressed as pIC50 (negative logarithm of IC50) and subsequently converted to pKi (negative logarithm of dissociation constant, Ki) using the Cheng-Prusoff equation.
# physchem = settings: thermodynamic from solid
# JAK2 = JAK2 (Homo sapiens (Human), UniProt O60674); assay: Biochemical JAK and Tyk2 Kinase Assays (LanthaScreen), JAK2; settings: 3 μM ATP (Km); pIC50 converted to pKi by Cheng-Prusoff
# Description: as §1, §2, §3, §4
# [3] = oil or lipid, Solubility in MCT (mg/mL)
# [4] = organic solvent or mixture, Solubility in Diisopropyl adipate (mg/mL)
# [5] = organic solvent or mixture, Solubility in PEG400 (mg/mL)
# [6] = organic solvent or mixture, Solubility in Propylene glycol (mg/mL)
# Chain of JAK2 (O60674 whole entry): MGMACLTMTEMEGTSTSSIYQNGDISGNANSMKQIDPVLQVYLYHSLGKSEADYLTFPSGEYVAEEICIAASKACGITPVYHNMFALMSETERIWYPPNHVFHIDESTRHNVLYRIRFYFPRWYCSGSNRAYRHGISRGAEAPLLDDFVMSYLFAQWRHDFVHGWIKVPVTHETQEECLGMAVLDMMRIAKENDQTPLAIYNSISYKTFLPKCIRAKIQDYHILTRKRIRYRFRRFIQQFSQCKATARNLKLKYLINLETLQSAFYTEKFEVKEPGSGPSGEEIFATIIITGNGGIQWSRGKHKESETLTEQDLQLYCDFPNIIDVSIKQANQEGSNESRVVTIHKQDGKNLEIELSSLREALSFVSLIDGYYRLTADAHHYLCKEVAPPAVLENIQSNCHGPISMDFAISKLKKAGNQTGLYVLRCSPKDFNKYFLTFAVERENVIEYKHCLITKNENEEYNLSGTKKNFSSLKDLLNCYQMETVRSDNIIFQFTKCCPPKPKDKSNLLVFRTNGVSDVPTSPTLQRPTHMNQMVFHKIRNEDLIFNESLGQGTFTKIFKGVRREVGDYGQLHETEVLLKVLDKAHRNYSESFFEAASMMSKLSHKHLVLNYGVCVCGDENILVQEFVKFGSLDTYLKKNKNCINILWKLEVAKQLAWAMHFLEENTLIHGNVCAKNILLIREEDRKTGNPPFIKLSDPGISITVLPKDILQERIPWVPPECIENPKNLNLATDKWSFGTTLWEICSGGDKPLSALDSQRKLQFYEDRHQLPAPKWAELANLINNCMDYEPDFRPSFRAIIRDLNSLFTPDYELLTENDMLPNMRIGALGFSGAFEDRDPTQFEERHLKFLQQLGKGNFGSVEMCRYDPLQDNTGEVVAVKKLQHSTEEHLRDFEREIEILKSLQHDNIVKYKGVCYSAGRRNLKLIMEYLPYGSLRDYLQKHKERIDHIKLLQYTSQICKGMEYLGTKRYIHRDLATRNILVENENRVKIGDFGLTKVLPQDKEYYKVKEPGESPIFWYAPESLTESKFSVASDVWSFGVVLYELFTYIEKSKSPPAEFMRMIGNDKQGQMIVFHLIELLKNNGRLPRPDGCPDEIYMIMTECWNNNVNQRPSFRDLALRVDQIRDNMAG
# Chain of Tyk2 (P29597 whole entry): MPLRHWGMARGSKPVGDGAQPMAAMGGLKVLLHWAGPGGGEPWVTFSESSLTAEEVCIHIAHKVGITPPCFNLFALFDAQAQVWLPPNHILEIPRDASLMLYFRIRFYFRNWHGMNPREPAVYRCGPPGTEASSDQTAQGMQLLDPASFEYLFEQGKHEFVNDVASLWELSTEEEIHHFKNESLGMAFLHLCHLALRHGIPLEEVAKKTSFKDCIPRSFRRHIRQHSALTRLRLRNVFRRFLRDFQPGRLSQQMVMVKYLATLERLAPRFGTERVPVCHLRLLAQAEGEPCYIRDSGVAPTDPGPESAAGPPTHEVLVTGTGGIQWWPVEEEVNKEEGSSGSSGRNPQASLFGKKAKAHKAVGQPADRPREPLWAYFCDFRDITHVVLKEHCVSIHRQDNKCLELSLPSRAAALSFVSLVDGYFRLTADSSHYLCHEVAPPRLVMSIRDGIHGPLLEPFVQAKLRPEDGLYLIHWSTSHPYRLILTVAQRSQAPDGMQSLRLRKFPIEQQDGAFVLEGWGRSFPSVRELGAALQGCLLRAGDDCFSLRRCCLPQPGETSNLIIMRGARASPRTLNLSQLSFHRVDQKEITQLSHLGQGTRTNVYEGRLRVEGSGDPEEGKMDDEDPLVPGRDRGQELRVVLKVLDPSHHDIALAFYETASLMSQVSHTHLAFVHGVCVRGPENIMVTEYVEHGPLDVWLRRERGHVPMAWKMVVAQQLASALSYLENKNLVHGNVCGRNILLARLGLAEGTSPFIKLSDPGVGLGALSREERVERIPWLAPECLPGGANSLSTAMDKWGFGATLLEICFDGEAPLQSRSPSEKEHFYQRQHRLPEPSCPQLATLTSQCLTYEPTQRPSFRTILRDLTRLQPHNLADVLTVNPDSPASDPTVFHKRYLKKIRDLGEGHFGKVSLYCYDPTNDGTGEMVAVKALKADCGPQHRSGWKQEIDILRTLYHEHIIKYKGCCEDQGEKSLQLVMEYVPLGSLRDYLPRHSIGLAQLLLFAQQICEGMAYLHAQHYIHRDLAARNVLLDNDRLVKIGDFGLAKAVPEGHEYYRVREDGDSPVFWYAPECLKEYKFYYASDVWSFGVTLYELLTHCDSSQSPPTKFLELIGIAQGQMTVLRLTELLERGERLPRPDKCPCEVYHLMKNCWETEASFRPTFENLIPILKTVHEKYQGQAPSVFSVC
# Chain of JAK3 (P52333 whole entry): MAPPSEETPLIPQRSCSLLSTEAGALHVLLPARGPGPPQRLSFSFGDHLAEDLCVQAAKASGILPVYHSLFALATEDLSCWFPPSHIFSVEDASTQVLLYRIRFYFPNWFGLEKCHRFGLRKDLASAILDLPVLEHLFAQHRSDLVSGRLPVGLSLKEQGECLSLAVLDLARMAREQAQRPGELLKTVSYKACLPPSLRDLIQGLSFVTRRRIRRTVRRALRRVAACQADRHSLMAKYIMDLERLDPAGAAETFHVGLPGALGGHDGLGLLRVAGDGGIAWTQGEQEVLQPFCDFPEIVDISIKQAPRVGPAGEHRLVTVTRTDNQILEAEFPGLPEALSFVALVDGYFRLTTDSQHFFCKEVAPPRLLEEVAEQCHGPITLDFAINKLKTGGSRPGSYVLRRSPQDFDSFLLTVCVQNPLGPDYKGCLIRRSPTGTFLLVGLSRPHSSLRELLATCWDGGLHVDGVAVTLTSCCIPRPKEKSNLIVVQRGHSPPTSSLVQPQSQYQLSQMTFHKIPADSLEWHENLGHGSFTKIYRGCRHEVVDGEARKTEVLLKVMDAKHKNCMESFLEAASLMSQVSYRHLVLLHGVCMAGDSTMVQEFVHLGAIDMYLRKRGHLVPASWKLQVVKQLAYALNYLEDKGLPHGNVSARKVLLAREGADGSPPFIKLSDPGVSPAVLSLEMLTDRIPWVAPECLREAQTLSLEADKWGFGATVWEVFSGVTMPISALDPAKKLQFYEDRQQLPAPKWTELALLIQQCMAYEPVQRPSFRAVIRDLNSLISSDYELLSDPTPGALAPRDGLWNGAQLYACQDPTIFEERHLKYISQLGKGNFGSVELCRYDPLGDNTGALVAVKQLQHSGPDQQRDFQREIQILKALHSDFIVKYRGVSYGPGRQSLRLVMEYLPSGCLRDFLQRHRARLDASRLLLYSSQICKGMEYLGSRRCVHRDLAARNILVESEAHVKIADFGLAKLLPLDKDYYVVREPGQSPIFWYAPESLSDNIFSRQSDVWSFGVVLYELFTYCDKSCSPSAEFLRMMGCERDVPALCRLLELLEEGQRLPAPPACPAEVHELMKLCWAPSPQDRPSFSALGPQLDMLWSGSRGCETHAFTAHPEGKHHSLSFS
# Chain of JAK1 (P23458 whole entry): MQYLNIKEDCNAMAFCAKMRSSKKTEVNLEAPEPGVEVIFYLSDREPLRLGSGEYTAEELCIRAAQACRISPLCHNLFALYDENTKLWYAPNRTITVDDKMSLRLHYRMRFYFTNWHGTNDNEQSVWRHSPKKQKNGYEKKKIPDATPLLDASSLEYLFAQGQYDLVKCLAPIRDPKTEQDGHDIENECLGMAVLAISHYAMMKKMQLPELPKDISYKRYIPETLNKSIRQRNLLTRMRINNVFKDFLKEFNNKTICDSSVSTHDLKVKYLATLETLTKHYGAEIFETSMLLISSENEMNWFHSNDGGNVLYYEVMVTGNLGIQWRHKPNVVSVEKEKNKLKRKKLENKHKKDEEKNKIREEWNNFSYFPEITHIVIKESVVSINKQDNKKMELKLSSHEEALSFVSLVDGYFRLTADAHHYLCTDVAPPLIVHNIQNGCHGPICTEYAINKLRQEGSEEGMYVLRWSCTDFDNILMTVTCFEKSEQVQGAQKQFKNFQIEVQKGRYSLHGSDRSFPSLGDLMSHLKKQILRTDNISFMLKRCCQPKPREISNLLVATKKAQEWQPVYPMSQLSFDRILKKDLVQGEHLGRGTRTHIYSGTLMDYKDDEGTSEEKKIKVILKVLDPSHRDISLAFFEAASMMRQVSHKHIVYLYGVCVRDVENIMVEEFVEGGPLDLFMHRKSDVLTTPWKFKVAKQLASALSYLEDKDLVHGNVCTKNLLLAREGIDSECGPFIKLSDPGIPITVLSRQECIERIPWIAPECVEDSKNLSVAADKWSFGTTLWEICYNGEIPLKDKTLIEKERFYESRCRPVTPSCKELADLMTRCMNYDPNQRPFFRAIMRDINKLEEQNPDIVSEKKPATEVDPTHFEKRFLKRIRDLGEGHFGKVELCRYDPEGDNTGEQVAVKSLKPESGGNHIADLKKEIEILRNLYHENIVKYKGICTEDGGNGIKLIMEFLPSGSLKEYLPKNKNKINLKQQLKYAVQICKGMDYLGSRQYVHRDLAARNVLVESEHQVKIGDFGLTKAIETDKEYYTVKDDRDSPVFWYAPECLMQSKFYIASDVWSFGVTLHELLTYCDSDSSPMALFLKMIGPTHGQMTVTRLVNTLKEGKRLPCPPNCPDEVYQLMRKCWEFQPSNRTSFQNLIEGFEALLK
Compound,JAK 3 (pKi) (JAK3),Solubility at PH 7.4 (μmol) (Aqueous Solubility Assay),JAK 1 (pKi) (JAK1),Cacoverap Kp 10^−6 cm/sec (Caco-2 cell monolayer),Caco Kp 10^−6 cm/sec (Caco-2 cell monolayer),Solubility in PEG400 (mg/mL) [1],Solubility in Diisopropyl adipate (mg/mL) [1],Solubility in MCT (mg/mL) [1],Solubility in Propylene glycol (mg/mL) [1],Tall-1 IL2 pSTAT5 (pIC50) [2],Ki (JAK3) [nM],Ki (Tyk2) [nM],Ki (JAK1; read-out: JAK 1 (pKi) (converted)) [nM],solubility at 4 h (physchem; [3]) [µg/mL],solubility at 4 h (physchem; [4]) [µg/mL],solubility at 4 h (physchem; [5]) [µg/mL],solubility at 4 h (physchem; [6]) [µg/mL],JAK 2 (pKi) (JAK2),IC50 [2] [nM],Tyk 2 (pKi) (Tyk2)
"Cc1cc(Nc2cc(C3CCCO3)nc(N(C)[C@@H]3C[C@H]4CCC[C@@H](C3)N4C(=O)CC3CC3)n2)n[nH]1 (stereo partly drawn) [Compound 12, 2-cyclopropyl-1-((1R,3s,5S)-3-(methyl(4-((5-methyl-1H-pyrazol-3-yl)amino)-6-(tetrahydrofuran-2-yl)pyrimidin-2-yl)amino)-9-azabicyclo[3.3.1]nonan-9-yl)ethan-1-one]",C (C represents a pKi value between 8 and 9 (Ki between 10 nM and 1 nM)),C (C represents a value between 50 and 250),B (B represents a pKi value between 9 and 10 (Ki between 1 nM and 0.1 nM)),C (C represents a value between 12×10^−6 and 20×10^−6 cm/sec),B (B represents a value between 15×10^−6 and 30×10^−6 cm/sec),B (B represents a value between 5 and 10),B (B represents a value between 5 and 10),C (C represents a value below 5),B (B represents a value between 5 and 10),A (A represents a pIC50 value ≥8.0),–,–,–,–,–,–,–,–,–,–
"CCNC(=O)CN1[C@@H]2CCC[C@H]1C[C@H](N(C)c1nc(Nc3cc(C)[nH]n3)cc(C3CCCO3)n1)C2 (stereo partly drawn) [Compound 15, N-ethyl-2-((1R,3s,5S)-3-(methyl(4-((5-methyl-1H-pyrazol-3-yl)amino)-6-(tetrahydrofuran-2-yl)pyrimidin-2-yl)amino)-9-azabicyclo[3.3.1]nonan-9-yl)acetamide]",B (B represents a pKi value between 9 and 10 (Ki between 1 nM and 0.1 nM)),A (A represents a value above 500),A (A represents a pKi value ≥10 (Ki≤0.1 nM)),B (B represents a value between 20×10^−6 and 35×10^−6 cm/sec),B (B represents a value between 15×10^−6 and 30×10^−6 cm/sec),B (B represents a value between 5 and 10),A (A represents a value above 10),C (C represents a value below 5),A (A represents a value above 10),A (A represents a pIC50 value ≥8.0),–,–,–,–,–,–,–,–,–,–
COCCC(=O)N1[C@@H]2CCC[C@H]1C[C@H](N(C)c1nc(Nc3cc(C)[nH]n3)cc(O[C@@H]3CCOC3)n1)C2 [Compound 25],–,–,–,–,–,–,–,–,–,–,0.1 to 1,0.1 to 1,0.1 to 1,< 5000,> 10000,> 10000,> 10000,A (A represents a pKi value ≥10 (Ki≤0.1 nM)),≤ 10,–
CCNC(=O)CN1[C@@H]2CCC[C@H]1C[C@H](N(C)c1nc(Nc3cc(C)[nH]n3)cc(O[C@H]3CCOC3)n1)C2 [Compound 32],–,–,A (A represents a pKi value ≥10 (Ki≤0.1 nM)),–,–,–,–,–,–,–,0.1 to 1,0.1 to 1,–,< 5000,> 10000,> 10000,> 10000,A (A represents a pKi value ≥10 (Ki≤0.1 nM)),–,–
Cc1cc(Nc2cc(OC3COC3)nc(N(C)[C@@H]3C[C@H]4CCC[C@@H](C3)N4C(=O)CC3CC3)n2)n[nH]1 [Compound 35],–,–,A (A represents a pKi value ≥10 (Ki≤0.1 nM)),–,–,–,–,–,–,–,0.1 to 1,–,–,< 5000,5000 to 10000,5000 to 10000,5000 to 10000,A (A represents a pKi value ≥10 (Ki≤0.1 nM)),≤ 10,A (A represents a pKi value ≥10 (Ki≤0.1 nM))
"CCS(=O)(=O)N1[C@@H]2CCC[C@H]1C[C@H](N(C)c1nc(Nc3cc(C)[nH]n3)cc(OCC3COC3)n1)C2 [Compound 39, N^2-((1R,3s,5S)-9-(ethylsulfonyl)-9-azabicyclo[3.3.1]nonan-3-yl)-N2-methyl-N4-(5-methyl-1H-pyrazol-3-yl)-6-(oxetan-3-ylmethoxy)pyrimidine-2,4-diamine]",A (A represents a pKi value ≥10 (Ki≤0.1 nM)),E (E represents a value below 10),A (A represents a pKi value ≥10 (Ki≤0.1 nM)),B (B represents a value between 20×10^−6 and 35×10^−6 cm/sec),B (B represents a value between 15×10^−6 and 30×10^−6 cm/sec),A (A represents a value above 10),B (B represents a value between 5 and 10),C (C represents a value below 5),B (B represents a value between 5 and 10),–,–,–,–,–,–,–,–,–,–,–
"CCS(=O)(=O)N1[C@@H]2CCC[C@H]1C[C@H](N(C)c1nc(Nc3cc(C)[nH]n3)c(F)c(C3CCOCC3)n1)C2 [Compound 45, N2-((1R,3s,5S)-9-(ethylsulfonyl)-9-azabicyclo[3.3.1]nonan-3-yl)-5-fluoro-N2-methyl-N4-(5-methyl-1H-pyrazol-3-yl)-6-(tetrahydro-2H-pyran-4-yl)pyrimidine-2,4-diamine]",C (C represents a pKi value between 8 and 9 (Ki between 10 nM and 1 nM)),E (E represents a value below 10),B (B represents a pKi value between 9 and 10 (Ki between 1 nM and 0.1 nM)),B (B represents a value between 20×10^−6 and 35×10^−6 cm/sec),B (B represents a value between 15×10^−6 and 30×10^−6 cm/sec),A (A represents a value above 10),A (A represents a value above 10),C (C represents a value below 5),A (A represents a value above 10),A (A represents a pIC50 value ≥8.0),–,–,–,–,–,–,–,–,–,–
